{
  "source": "patent US6528260B1",
  "about": "“Biallelic markers related to genes involved in drug metabolism” (Genset, S.A., priority 1999, dated 2003)",
  "key": {"[1]": {"tested_on": "smooth muscle in peripheral airways", "details": "both in vitro and in vivo; cited from earlier work"}, "[2]": {"tested_on": "serum level of alanine aminotransferase (ALT)", "experiment": "Clinical study of zileuton: hepatotoxicity monitored by serum ALT level", "type": "in vivo, human", "details": "asthmatic individuals treated with zileuton", "excerpt": "In a preferred embodiment, the trait considered was a side-effect upon drug treatment, the study involved two populations derived from a clinical study of the anti-asthmatic drug zileuton. The case population was composed of asthmatic individuals treated with zileuton showing zileuton-associated hepatotoxicity monitored by the serum level of alanine aminotransferase (ALT) and the control population was composed of asthmatic individuals treated with zileuton and having no increased serum level of ALT. Inclusion criteria and association between the biallelic markers of the present invention and zileuton-associated hepatotoxicity are further described below and in Example 4.\nZileuton (Zyflo™) is an active inhibitor of 5-lipoxygenase, the enzyme that catalyzes the formation of leukotrienes from arachidonic acid, indicated for prophylaxis and chronic treatment of asthma. […] In the present invention the ALT test (serum level of alanine aminotransferase) was used, which is considered the most sensitive indicator of liver injury.\nTwo groups of unrelated individuals were used in this association study in accordance with the invention: the case-control populations. The case population was composed of 89 asthmatic individuals treated with zileuton showing zileuton-associated hepatotoxicity monitored by the serum level of alanine aminotransferase (ALT) and the control population was composed of 208 asthmatic individuals treated with zileuton and having no increased serum ALT level.\nThe side effect examined in this study was the hepatotoxicity experienced by asthmatic individuals as a result of their treatment with Zileuton as part of a clinical study. […] Hepatotoxicity was monitored by measuring the serum levels of alanine aminotransferase (ALT), which is a sensitive indicator of liver cell damage.\nAs mentioned above, an association study is more informative if the populations considered present extreme phenotypes. […]"}, "[3]": {"tested_on": "DME-related biallelic markers", "experiment": "Genotyping by microsequencing: allele frequencies of DME-related biallelic markers in random Caucasian populations", "set-up": "species or system human", "details": "Caucasian FRENCH", "protocol": "The biallelic markers identified as described above were further confirmed and their respective frequencies were determined through microsequencing. Microsequencing was carried out on individual DNA samples obtained as described herein.\nAmplification of genomic DNA fragments from individual DNA samples was performed as described in Example 1 using the same set of PCR primers (See Table 17). Microsequencing was carried out on the amplified fragments using specific primers (See Table 16). The preferred primers used in microsequencing had about 19 nucleotides in length and hybridized just upstream of the considered polymorphic base.\nThe microsequencing reactions were performed as follows: 5 μl of PCR products were added to 5 μl purification mix (2U SAP (Shrimp alkaline phosphate) (Amersham E70092X)); 2U Exonuclease I (Amersham E70073Z); and 1 μl SAP buffer (200 mM Tris-HCl pH8, 100 mM MgCl2) in a microtiter plate. The reaction mixture was incubated 30 minutes at 37° C., and denatured 10 minutes at 94° C. afterwards. To each well was then added 20 μl of microsequencing reaction mixture containing: 10 pmol microsequencing oligonucleotide (19 mers, GENSET, crude synthesis, 5 OD), 1 U Thermosequenase (Amersham E79000G), 1.25 μl Thermosequenase buffer (260 mM Tris HCl pH 9.5, 65 mM MgCl2), and the two appropriate fluorescent ddNTPs complementary to the nucleotides at the polymorphic site corresponding to both polymorphic bases (11.25 nM TAMRA-ddTTP; 16.25 nM ROX-ddCTP; 1.675 nM REG-ddATP; 1.25 nM RHO-ddGTP; Perkin Elmer, Dye Terminator Set 401095). After 4 minutes at 94° C., 20 PCR cycles of 15 sec at 55° C., 5 sec at 72° C., and 10 sec at 94° C. were carried out in a Tetrad PTC-225 thermocycler (MJ Research). The microtiter plate was centrifuged 10 sec at 1500 rpm. The unincorporated dye terminators were removed by precipitation with 19 μl MgCl2 2 mM and 55 μl 100% ethanol. After 15 minute incubation at room temperature, the microtiter plate was centrifuged at 3300 rpm 15 minutes at 4° C. After discarding the supernatants, the microplate was evaporated to dryness under reduced pressure (Speed Vac). Samples were resuspended in 2.5 μl formamide EDTA loading buffer and heated for 2 min at 95° C. 0.8 μl microsequencing reaction were loaded on a 10% (19:1) polyacrylamide sequencing gel. The data were collected by an ABI PRISM 377 DNA sequencer and processed using the GENESCAN software (Perkin Elmer).\nThe frequencies for both alleles are shown for preferred MGST-II, ME1, UGT1A7 and UGT2B4 markers in Tables 19, 20, 21 and 22, respectively."}},
  "data": [
    {"compound": "CCCCC/C=C\\C\\C=C/C=C/C=C/[C@@H](SC[C@H](NC(=O)CC[C@H](N)C(=O)O)C(=O)NCC(=O)O)[C@@H](O)CCCC(=O)O", "note": "[LTC4, leukotriene C4]", "values": [
      {"measurement": "bronchoconstrictor potency relative to histamine", "setting": "[1]", "result": 1000, "unit": "times"}
    ]},
    {"compound": "CCCCC/C=C\\C\\C=C/C=C/C=C/[C@@H](SC[C@H](N)C(=O)NCC(=O)O)[C@@H](O)CCCC(=O)O", "note": "[LTD4, Leukotriene D4]", "values": [
      {"measurement": "bronchoconstrictor potency relative to histamine", "setting": "[1]", "result": 1000, "unit": "times"}
    ]},
    {"compound": "CC(c1cc2ccccc2s1)N(O)C(N)=O", "note": "(stereo not shown) [Zileuton, zileuton]", "values": [
      {"measurement": "ALT+ population (at least 3 times the upper limit of normal level of ALT) as share of total asthmatic individuals in the study", "setting": "[2]; 89 individuals", "result": 4, "unit": "%"},
      {"measurement": "ALT- population (less than 1xULN of ALT) as share of total asthmatic individuals in the study", "setting": "[2]; 208 individuals", "result": 35, "unit": "%"},
      {"measurement": "asthmatic individuals that did not experience Zileuton-associated ALT increase", "setting": "[2]; compared to ALT levels prior to zileuton intake", "result": "More than 90%"}
    ]},
    {"compound": "12-142-321 (DNA GCAGCACAGCGGTCTGCGTGGAARTGAGGCACCGGGTGTGGGCGGGG; allele 24: 12-142-321 : polymorphic base A or G; listed as Homo Sapiens)", "values": [
      {"measurement": "allele frequency A", "setting": "[3]", "result": 54.44},
      {"measurement": "allele frequency G", "setting": "[3]", "result": 45.56}
    ]},
    {"compound": "12-141-159 (DNA CTCAGTGAGTGAGTTGAAGGGCTYAGTCAACTATTTGTTGATACCAC; allele 24: 12-141-159 : polymorphic base T or C; listed as Homo Sapiens)", "values": [
      {"measurement": "allele frequency A", "setting": "[3]", "result": 37.5},
      {"measurement": "allele frequency G", "setting": "[3]", "result": 62.5}
    ]},
    {"compound": "12-143-453 (DNA TGGAGTGGAGCTTGGTTCTGGCCRTGGGCTGGGGAAGGGAGGTCCGG; allele 24: 12-143-453 : polymorphic base A or G; listed as Homo Sapiens)", "values": [
      {"measurement": "allele frequency A", "setting": "[3]", "result": 50.61},
      {"measurement": "allele frequency G", "setting": "[3]", "result": 49.39}
    ]},
    {"compound": "12-124-194 (DNA TCTAGCTGGAGCCTGCGCTTGAGYAAAGAGCTGAACAACCAGATTGC; allele 24: 12-124-194 : polymorphic base C or T; listed as Homo Sapiens)", "values": [
      {"measurement": "allele frequency C", "setting": "[3]", "result": 19.41},
      {"measurement": "allele frequency T", "setting": "[3]", "result": 80.59}
    ]}
  ]
}
